Measurements as given in PubChem BioAssay (NCI).
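Test compounds were applied to cells in 96-well plates for 48 hours at 5 doses. Here, GI50 denotes the concentration required for 50% inhibition of growth. TGI denotes the concentration required for complete inhibition of growth.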

Assays:
Assay in all cases: NCI-60 cell line screen, 48 h
T-47D breast = tested on: T-47D breast
SK-OV-3 ovarian = tested on: SK-OV-3 ovarian
UACC-257 melanoma = tested on: UACC-257 melanoma
TK-10 renal = tested on: TK-10 renal
NCI-H23 lung = tested on: NCI-H23 lung
MOLT-4 leukemia = tested on: MOLT-4 leukemia
SNB-75 CNS = tested on: SNB-75 CNS
PC-3 prostate = tested on: PC-3 prostate
NCI-H460 lung = tested on: NCI-H460 lung
MALME-3M melanoma = tested on: MALME-3M melanoma
CCRF-CEM leukemia = tested on: CCRF-CEM leukemia
HCC-2998 colon = tested on: HCC-2998 colon
NCI-H226 lung = tested on: NCI-H226 lung
LOX IMVI melanoma = tested on: LOX IMVI melanoma
SK-MEL-2 melanoma = tested on: SK-MEL-2 melanoma
SW-620 colon = tested on: SW-620 colon
HS 578T breast = tested on: HS 578T breast
SNB-19 CNS = tested on: SNB-19 CNS
ACHN renal = tested on: ACHN renal
UACC-62 melanoma = tested on: UACC-62 melanoma
CAKI-1 renal = tested on: CAKI-1 renal
SK-MEL-28 melanoma = tested on: SK-MEL-28 melanoma
BT-549 breast = tested on: BT-549 breast
NCI/ADR-RES ovarian = tested on: NCI/ADR-RES ovarian
HCT-116 colon = tested on: HCT-116 colon
RPMI-8226 leukemia = tested on: RPMI-8226 leukemia
UO-31 renal = tested on: UO-31 renal
DU-145 prostate = tested on: DU-145 prostate
EKVX NSCLC = tested on: EKVX NSCLC
COLO 205 colon = tested on: COLO 205 colon
HOP-92 NSCLC = tested on: HOP-92 NSCLC
786-0 renal = tested on: 786-0 renal
A549 NSCLC = tested on: A549 NSCLC
K-562 leukemia = tested on: K-562 leukemia
RXF 393 renal = tested on: RXF 393 renal
SF-295 CNS = tested on: SF-295 CNS
OVCAR-4 ovarian = tested on: OVCAR-4 ovarian
OVCAR-8 ovarian = tested on: OVCAR-8 ovarian
A498 renal = tested on: A498 renal
SR leukemia = tested on: SR leukemia
SK-MEL-5 melanoma = tested on: SK-MEL-5 melanoma
NCI-H522 lung = tested on: NCI-H522 lung
HCT-15 colon = tested on: HCT-15 colon
HOP-62 NSCLC = tested on: HOP-62 NSCLC
MDA-MB-231 breast = tested on: MDA-MB-231 breast
KM12 colon = tested on: KM12 colon
HT29 colon = tested on: HT29 colon
SN12C renal = tested on: SN12C renal
OVCAR-5 ovarian = tested on: OVCAR-5 ovarian
SF-268 CNS = tested on: SF-268 CNS
M14 melanoma = tested on: M14 melanoma
SF-539 CNS = tested on: SF-539 CNS
U251 CNS = tested on: U251 CNS
MDA-MB-435 = tested on: MDA-MB-435
MCF7 breast = tested on: MCF7 breast
IGROV1 ovarian = tested on: IGROV1 ovarian
HL-60(TB) leukemia = tested on: HL-60(TB) leukemia

O=C(CCCCCCN1CC(=O)N2[C@@H](c3cccc(Br)c3)c3[nH]c4ccccc4c3C[C@H]2C1=O)NO was tested. Which GI50 (T-47D breast) did it give?
The GI50 was 1.65 µM.

What about the TGI (T-47D breast) of the same molecule?
The TGI was 12.8 µM.

And the GI50 (SK-OV-3 ovarian)?
The GI50 was 3.23 µM.

What about the TGI (SK-OV-3 ovarian) of the same molecule?
Its TGI is 9.27 µM.

And the GI50 (UACC-257 melanoma)?
The GI50 was 2.37 µM.

And the TGI (UACC-257 melanoma)?
The TGI was greater than 16.7 µM.

What about the GI50 (TK-10 renal) of the same molecule?
Its GI50 is 2.98 µM.

What about the TGI (TK-10 renal) of the same molecule?
The TGI was 15.1 µM.

And the GI50 (NCI-H23 lung)?
Its GI50 is 3.08 µM.

What about the TGI (NCI-H23 lung) of the same molecule?
The TGI was 9.78 µM.

What about the GI50 (MOLT-4 leukemia) of the same molecule?
Its GI50 is 0.933 µM.

And the TGI (MOLT-4 leukemia)?
Its TGI is 10.4 µM.

And the GI50 (SNB-75 CNS)?
The GI50 was 0.707 µM.

What about the TGI (SNB-75 CNS) of the same molecule?
Its TGI is 9.15 µM.

What about the GI50 (PC-3 prostate) of the same molecule?
Its GI50 is 2.23 µM.

And the TGI (PC-3 prostate)?
The TGI was greater than 16.7 µM.

And the GI50 (NCI-H460 lung)?
The GI50 was 2.43 µM.

What about the TGI (NCI-H460 lung) of the same molecule?
The TGI was 11.5 µM.

What about the GI50 (MALME-3M melanoma) of the same molecule?
The GI50 was 0.922 µM.

And the TGI (MALME-3M melanoma)?
Its TGI is 7.45 µM.

And the GI50 (CCRF-CEM leukemia)?
Its GI50 is 0.709 µM.

And the TGI (CCRF-CEM leukemia)?
Its TGI is greater than 16.7 µM.

And the GI50 (HCC-2998 colon)?
The GI50 was 2.66 µM.

What about the TGI (HCC-2998 colon) of the same molecule?
The TGI was 5.81 µM.

What about the GI50 (NCI-H226 lung) of the same molecule?
Its GI50 is 5.01 µM.

And the TGI (NCI-H226 lung)?
Its TGI is greater than 16.7 µM.

And the GI50 (LOX IMVI melanoma)?
The GI50 was 0.203 µM.

And the TGI (LOX IMVI melanoma)?
Its TGI is 0.431 µM.

And the GI50 (SK-MEL-2 melanoma)?
Its GI50 is 2.77 µM.

And the TGI (SK-MEL-2 melanoma)?
Its TGI is 12.7 µM.

And the GI50 (SW-620 colon)?
Its GI50 is 2.24 µM.

And the TGI (SW-620 colon)?
The TGI was 14.7 µM.

And the GI50 (HS 578T breast)?
The GI50 was 2.25 µM.

And the TGI (HS 578T breast)?
Its TGI is 12.1 µM.

What about the GI50 (SNB-19 CNS) of the same molecule?
The GI50 was 3.79 µM.

What about the TGI (SNB-19 CNS) of the same molecule?
Its TGI is greater than 16.7 µM.

What about the GI50 (ACHN renal) of the same molecule?
The GI50 was 3.85 µM.

What about the TGI (ACHN renal) of the same molecule?
The TGI was 14.9 µM.

And the GI50 (UACC-62 melanoma)?
Its GI50 is 1.78 µM.

What about the TGI (UACC-62 melanoma) of the same molecule?
The TGI was 5.38 µM.

What about the GI50 (CAKI-1 renal) of the same molecule?
Its GI50 is 2.6 µM.

And the TGI (CAKI-1 renal)?
The TGI was 15 µM.

What about the GI50 (SK-MEL-28 melanoma) of the same molecule?
The GI50 was 2.51 µM.

And the TGI (SK-MEL-28 melanoma)?
The TGI was 10.5 µM.

And the GI50 (BT-549 breast)?
Its GI50 is 3.81 µM.

What about the TGI (BT-549 breast) of the same molecule?
Its TGI is 16.1 µM.

And the GI50 (NCI/ADR-RES ovarian)?
The GI50 was greater than 16.7 µM.

What about the TGI (NCI/ADR-RES ovarian) of the same molecule?
The TGI was greater than 16.7 µM.

And the GI50 (HCT-116 colon)?
Its GI50 is 1.05 µM.

And the TGI (HCT-116 colon)?
Its TGI is 6.46 µM.

What about the GI50 (RPMI-8226 leukemia) of the same molecule?
The GI50 was 0.982 µM.

And the TGI (RPMI-8226 leukemia)?
Its TGI is 11.6 µM.

And the GI50 (UO-31 renal)?
Its GI50 is 3.3 µM.

What about the TGI (UO-31 renal) of the same molecule?
Its TGI is greater than 16.7 µM.

And the GI50 (DU-145 prostate)?
Its GI50 is 3.13 µM.

What about the TGI (DU-145 prostate) of the same molecule?
Its TGI is 12.3 µM.

What about the GI50 (EKVX NSCLC) of the same molecule?
The GI50 was 4.33 µM.

What about the TGI (EKVX NSCLC) of the same molecule?
Its TGI is greater than 16.7 µM.

And the GI50 (COLO 205 colon)?
Its GI50 is 2.28 µM.

What about the TGI (COLO 205 colon) of the same molecule?
Its TGI is 8.36 µM.

What about the GI50 (HOP-92 NSCLC) of the same molecule?
Its GI50 is 1.84 µM.

What about the TGI (HOP-92 NSCLC) of the same molecule?
Its TGI is 5.78 µM.

And the GI50 (786-0 renal)?
The GI50 was 3.86 µM.

What about the TGI (786-0 renal) of the same molecule?
Its TGI is 11.1 µM.

And the GI50 (A549 NSCLC)?
Its GI50 is 4.83 µM.

What about the TGI (A549 NSCLC) of the same molecule?
The TGI was greater than 16.7 µM.

What about the GI50 (K-562 leukemia) of the same molecule?
Its GI50 is 1.37 µM.

And the TGI (K-562 leukemia)?
The TGI was greater than 16.7 µM.

And the GI50 (RXF 393 renal)?
The GI50 was 1.51 µM.

And the TGI (RXF 393 renal)?
Its TGI is 5.21 µM.

What about the GI50 (SF-295 CNS) of the same molecule?
The GI50 was 2.57 µM.

And the TGI (SF-295 CNS)?
Its TGI is 6.58 µM.

What about the GI50 (OVCAR-4 ovarian) of the same molecule?
Its GI50 is 3.17 µM.

And the TGI (OVCAR-4 ovarian)?
Its TGI is greater than 16.7 µM.

And the GI50 (OVCAR-8 ovarian)?
Its GI50 is 2.32 µM.

What about the TGI (OVCAR-8 ovarian) of the same molecule?
Its TGI is greater than 16.7 µM.

What about the GI50 (A498 renal) of the same molecule?
Its GI50 is 2.75 µM.

And the TGI (A498 renal)?
The TGI was 6.31 µM.

And the GI50 (SR leukemia)?
The GI50 was 0.554 µM.

And the TGI (SR leukemia)?
Its TGI is 8.71 µM.

And the GI50 (SK-MEL-5 melanoma)?
The GI50 was 2.6 µM.

And the TGI (SK-MEL-5 melanoma)?
Its TGI is 9.06 µM.

And the GI50 (NCI-H522 lung)?
Its GI50 is 0.8 µM.

And the TGI (NCI-H522 lung)?
The TGI was 5.77 µM.

And the GI50 (HCT-15 colon)?
The GI50 was 13 µM.

And the TGI (HCT-15 colon)?
Its TGI is greater than 16.7 µM.

And the GI50 (HOP-62 NSCLC)?
Its GI50 is 2.51 µM.

What about the TGI (HOP-62 NSCLC) of the same molecule?
The TGI was 7.59 µM.

And the GI50 (MDA-MB-231 breast)?
Its GI50 is 3.25 µM.

What about the TGI (MDA-MB-231 breast) of the same molecule?
The TGI was 11.5 µM.

What about the GI50 (KM12 colon) of the same molecule?
The GI50 was 2.95 µM.

And the TGI (KM12 colon)?
Its TGI is 6.65 µM.

What about the GI50 (HT29 colon) of the same molecule?
The GI50 was 2.23 µM.

And the TGI (HT29 colon)?
Its TGI is greater than 16.7 µM.

What about the GI50 (SN12C renal) of the same molecule?
Its GI50 is 3.9 µM.

What about the TGI (SN12C renal) of the same molecule?
Its TGI is greater than 16.7 µM.

And the GI50 (OVCAR-5 ovarian)?
The GI50 was 3.37 µM.

What about the TGI (OVCAR-5 ovarian) of the same molecule?
The TGI was greater than 16.7 µM.

And the GI50 (SF-268 CNS)?
The GI50 was 3.44 µM.

What about the TGI (SF-268 CNS) of the same molecule?
Its TGI is 9.8 µM.

What about the GI50 (M14 melanoma) of the same molecule?
Its GI50 is 2.81 µM.

And the TGI (M14 melanoma)?
The TGI was 14.3 µM.

And the GI50 (SF-539 CNS)?
The GI50 was 2.89 µM.

And the TGI (SF-539 CNS)?
The TGI was 10.5 µM.

And the GI50 (U251 CNS)?
The GI50 was 2.78 µM.

What about the TGI (U251 CNS) of the same molecule?
The TGI was 10.7 µM.

And the GI50 (MDA-MB-435)?
Its GI50 is 2.27 µM.

What about the TGI (MDA-MB-435) of the same molecule?
The TGI was 7.29 µM.

What about the GI50 (MCF7 breast) of the same molecule?
Its GI50 is 1.88 µM.

What about the TGI (MCF7 breast) of the same molecule?
The TGI was 7.19 µM.

And the GI50 (IGROV1 ovarian)?
Its GI50 is 0.403 µM.

And the TGI (IGROV1 ovarian)?
The TGI was 1.11 µM.

And the GI50 (HL-60(TB) leukemia)?
Its GI50 is 1.2 µM.

What about the TGI (HL-60(TB) leukemia) of the same molecule?
The TGI was 6.29 µM.
